# Data taken from patent publication US12581252B2, “Substituted pyrrolo[3,4-b]pyridines as PI3K-α inhibitors” (Relay Therapeutics, Inc., priority 2020, dated 2026).
# Assays:
# H1047R PIK3CA enzyme = H1047R PIK3CA enzyme (Homo sapiens, UniProt P42336, H1047R); experiment: ADP-Glo Biochemical PIK3CA Kinase Assay
# cells = conditions: Homo sapiens, MCF-10A, read-out: MCF10A IC50
# H1047R PIK3CA enzyme, sequence (P42336 whole entry H1047R): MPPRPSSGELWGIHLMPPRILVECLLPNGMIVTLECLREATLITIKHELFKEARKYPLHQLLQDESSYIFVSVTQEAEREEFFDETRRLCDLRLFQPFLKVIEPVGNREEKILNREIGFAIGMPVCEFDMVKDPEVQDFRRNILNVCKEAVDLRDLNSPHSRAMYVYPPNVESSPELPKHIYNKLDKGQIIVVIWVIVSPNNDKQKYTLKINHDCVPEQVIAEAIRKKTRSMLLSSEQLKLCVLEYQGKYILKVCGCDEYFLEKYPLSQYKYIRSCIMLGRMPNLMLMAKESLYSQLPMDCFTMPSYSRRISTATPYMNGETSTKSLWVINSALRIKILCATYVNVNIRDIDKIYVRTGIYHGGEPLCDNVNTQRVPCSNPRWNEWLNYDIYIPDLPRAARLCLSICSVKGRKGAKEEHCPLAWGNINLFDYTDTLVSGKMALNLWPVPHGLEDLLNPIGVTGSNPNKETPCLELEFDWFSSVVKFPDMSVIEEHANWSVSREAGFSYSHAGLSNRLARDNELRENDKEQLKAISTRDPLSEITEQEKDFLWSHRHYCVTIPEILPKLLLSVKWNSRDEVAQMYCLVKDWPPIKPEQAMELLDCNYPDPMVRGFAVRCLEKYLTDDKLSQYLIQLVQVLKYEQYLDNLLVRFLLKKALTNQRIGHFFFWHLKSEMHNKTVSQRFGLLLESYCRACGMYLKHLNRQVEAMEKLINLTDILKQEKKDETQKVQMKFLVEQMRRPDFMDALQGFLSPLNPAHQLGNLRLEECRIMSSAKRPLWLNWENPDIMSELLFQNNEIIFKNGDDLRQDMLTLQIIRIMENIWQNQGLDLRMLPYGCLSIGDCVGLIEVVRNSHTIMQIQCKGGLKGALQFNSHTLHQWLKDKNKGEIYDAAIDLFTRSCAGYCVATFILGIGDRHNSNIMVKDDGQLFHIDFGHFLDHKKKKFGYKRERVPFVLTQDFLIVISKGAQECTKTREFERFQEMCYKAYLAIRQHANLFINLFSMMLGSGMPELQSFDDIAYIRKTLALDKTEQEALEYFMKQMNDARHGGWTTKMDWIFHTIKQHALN
# H1047R PIK3CA enzyme, sequence (P27986 whole entry partner): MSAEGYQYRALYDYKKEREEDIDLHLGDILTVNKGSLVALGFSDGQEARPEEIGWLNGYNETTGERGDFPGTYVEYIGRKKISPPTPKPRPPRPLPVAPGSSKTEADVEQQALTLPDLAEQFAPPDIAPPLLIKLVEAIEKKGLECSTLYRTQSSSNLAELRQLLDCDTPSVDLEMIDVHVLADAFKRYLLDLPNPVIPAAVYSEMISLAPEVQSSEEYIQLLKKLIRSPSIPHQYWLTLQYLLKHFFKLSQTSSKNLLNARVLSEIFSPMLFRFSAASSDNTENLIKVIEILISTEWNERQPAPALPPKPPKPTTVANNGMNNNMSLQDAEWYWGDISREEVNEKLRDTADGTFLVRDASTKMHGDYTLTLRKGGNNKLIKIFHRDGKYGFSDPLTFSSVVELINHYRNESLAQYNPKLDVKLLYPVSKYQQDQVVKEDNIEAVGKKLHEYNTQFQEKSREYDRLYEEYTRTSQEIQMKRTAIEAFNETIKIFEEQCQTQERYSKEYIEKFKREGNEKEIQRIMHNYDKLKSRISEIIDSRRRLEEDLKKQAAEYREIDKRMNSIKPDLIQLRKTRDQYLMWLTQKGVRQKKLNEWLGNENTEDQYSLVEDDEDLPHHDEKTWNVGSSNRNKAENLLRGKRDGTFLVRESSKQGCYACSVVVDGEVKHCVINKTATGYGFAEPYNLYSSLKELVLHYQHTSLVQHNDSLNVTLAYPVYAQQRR
SMILES,IC50 (H1047R PIK3CA enzyme),IC50 (cells)
N#CC1(CNc2cc(NC(=O)c3cc(F)cc(C(F)(F)F)c3)c3c(c2)C(=O)N[C@H]3c2cc(F)ccc2Cl)CC1 [Compound I-868],≤ 100 nM,< 1000 nM
O=C(Nc1cc(-c2cn[nH]c2)cc2c1C(c1cc(F)ccc1Cl)NC2=O)c1cc(F)cc(C(F)(F)F)c1 (stereo not drawn) [Compound I-878],≤ 100 nM,< 1000 nM
COc1ncc(-c2cc(NC(=O)c3cc(F)cc(C(F)(F)F)c3)c3c(c2)C(=O)N[C@H]3c2cc(F)ccc2Cl)cn1 [Compound I-882],≤ 100 nM,< 1000 nM
O=C(Nc1cc(-c2cnc3nccn3c2)cc2c1[C@H](c1cc(F)ccc1Cl)NC2=O)c1cc(F)cc(C(F)(F)F)c1 [Compound I-884],≤ 100 nM,< 1000 nM
O=C(Nc1cc(-c2ccncc2F)cc2c1C(c1cc(F)ccc1Cl)NC2=O)c1cc(F)cc(C(F)(F)F)c1 (stereo not drawn) [Compound I-887],≤ 100 nM,< 1000 nM
O=C(Nc1cc(-c2ccc3ncccc3c2)cc2c1[C@H](c1cc(F)ccc1Cl)NC2=O)c1cc(F)cc(C(F)(F)F)c1 [Compound I-894],≤ 100 nM,< 1000 nM
CC(C)(O)CNc1cc(NC(=O)c2cc(F)cc(C(F)(F)F)c2)c2c(c1)C(=O)N[C@@H]2c1cc(F)ccc1Cl [Compound I-900],≤ 100 nM,< 1000 nM
Cn1cccc(-c2cc(NC(=O)c3cc(F)cc(C(F)(F)F)c3)c3c(c2)C(=O)NC3c2cc(F)ccc2Cl)c1=O (stereo not drawn) [Compound I-901],100 to 500 nM,1000 to 5000 nM
O=C(Nc1cc(-c2cccc3cnccc23)cc2c1C(c1cc(F)ccc1Cl)NC2=O)c1cc(F)cc(C(F)(F)F)c1 (stereo not drawn) [Compound I-902],≤ 100 nM,< 1000 nM
O=C(Nc1cc(-c2cnn(C3CNC3)c2)cc2c1C(c1cc(F)ccc1Cl)NC2=O)c1cc(F)cc(C(F)(F)F)c1 (stereo not drawn) [Compound I-903],≤ 100 nM,10000 to 36000 nM
O=C(Nc1cc(-c2cnn(C3COC3)c2)cc2c1C(c1cc(F)ccc1Cl)NC2=O)c1cc(F)cc(C(F)(F)F)c1 (stereo not drawn) [Compound I-904],≤ 100 nM,< 1000 nM
O=C(Nc1cc(-c2ccc3nccn3n2)cc2c1C(c1cc(F)ccc1Cl)NC2=O)c1cc(F)cc(C(F)(F)F)c1 (stereo not drawn) [Compound I-905],≤ 100 nM,< 1000 nM
Cn1nccc1-c1cc(NC(=O)c2cc(F)cc(C(F)(F)F)c2)c2c(c1)C(=O)NC2c1cc(F)ccc1Cl (stereo not drawn) [Compound I-906],≤ 100 nM,< 1000 nM
O=C(Nc1cc(I)cc2c1C(c1cc(F)ccc1Cl)NC2=O)c1cc(F)cc(C(F)(F)F)c1 (stereo not drawn) [Compound I-913],≤ 100 nM,< 1000 nM
CSCc1cc(NC(=O)c2cc(F)cc(C(F)(F)F)c2)c2c(c1)C(=O)NC2c1cc(F)ccc1Cl (stereo not drawn) [Compound I-914],≤ 100 nM,< 1000 nM
O=C(Nc1cc(-c2ncco2)cc2c1C(c1cc(F)ccc1Cl)NC2=O)c1cc(F)cc(C(F)(F)F)c1 (stereo not drawn) [Compound I-915],≤ 100 nM,< 1000 nM
O=C(Nc1cc(-c2ccc[nH]c2=O)cc2c1C(c1cc(F)ccc1Cl)NC2=O)c1cc(F)cc(C(F)(F)F)c1 (stereo not drawn) [Compound I-916],≤ 100 nM,< 1000 nM
Cn1cc(Nc2cc(NC(=O)c3cc(F)cc(C(F)(F)F)c3)c3c(c2)C(=O)NC3c2cc(F)ccc2Cl)cn1 (stereo not drawn) [Compound I-917],≤ 100 nM,< 1000 nM
O=C(Nc1cc(-c2ncc[nH]2)cc2c1[C@H](c1cc(F)ccc1Cl)NC2=O)c1cc(F)cc(C(F)(F)F)c1 [Compound I-919],≤ 100 nM,< 1000 nM
O=C(Nc1cc(-c2cscn2)cc2c1C(c1cc(F)ccc1Cl)NC2=O)c1cc(F)cc(C(F)(F)F)c1 (stereo not drawn) [Compound I-920],≤ 100 nM,< 1000 nM
O=C(Nc1cc(-c2nccs2)cc2c1C(c1cc(F)ccc1Cl)NC2=O)c1cc(F)cc(C(F)(F)F)c1 (stereo not drawn) [Compound I-921],≤ 100 nM,< 1000 nM
Cn1nccc1Nc1cc(NC(=O)c2cc(F)cc(C(F)(F)F)c2)c2c(c1)C(=O)NC2c1cc(F)ccc1Cl (stereo not drawn) [Compound I-922],≤ 100 nM,< 1000 nM
Cc1noc(C)c1Nc1cc(NC(=O)c2cc(F)cc(C(F)(F)F)c2)c2c(c1)C(=O)NC2c1cc(F)ccc1Cl (stereo not drawn) [Compound I-923],≤ 100 nM,< 1000 nM
Cc1nn(C)cc1Nc1cc(NC(=O)c2cc(F)cc(C(F)(F)F)c2)c2c(c1)C(=O)NC2c1cc(F)ccc1Cl (stereo not drawn) [Compound I-924],≤ 100 nM,< 1000 nM

SMILES,IC50 (H1047R PIK3CA enzyme),IC50 (cells)
O=C(Nc1cc(CC2(O)CNC2)cc2c1C(c1cc(F)ccc1Cl)NC2=O)c1cc(F)cc(C(F)(F)F)c1 (stereo not drawn) [Compound I-926],≤ 100 nM,10000 to 36000 nM
Cc1cc(-c2cc(NC(=O)c3cc(F)cc(C(F)(F)F)c3)c3c(c2)C(=O)NC3c2cc(F)ccc2Cl)cc2cnn(C)c12 (stereo not drawn) [Compound I-927],100 to 500 nM,5000 to 10000 nM
N#Cc1ccc(-c2cc(NC(=O)c3cc(F)cc(C(F)(F)F)c3)c3c(c2)C(=O)NC3c2cc(F)ccc2Cl)cn1 (stereo not drawn) [Compound I-928],≤ 100 nM,< 1000 nM
O=C(Nc1cc(-c2ccc(N3CCOCC3)nc2)cc2c1C(c1cc(F)ccc1Cl)NC2=O)c1cc(F)cc(C(F)(F)F)c1 (stereo not drawn) [Compound I-929],≤ 100 nM,< 1000 nM
O=C(Nc1cc(-c2cnc(N3CCOCC3)nc2)cc2c1C(c1cc(F)ccc1Cl)NC2=O)c1cc(F)cc(C(F)(F)F)c1 (stereo not drawn) [Compound I-930],≤ 100 nM,1000 to 5000 nM
O=C(Nc1cc(-c2cccc3ncccc23)cc2c1C(c1cc(F)ccc1Cl)NC2=O)c1cc(F)cc(C(F)(F)F)c1 (stereo not drawn) [Compound I-931],≤ 100 nM,< 1000 nM
O=C(Nc1cc(-c2ccc3c(c2)OCCO3)cc2c1C(c1cc(F)ccc1Cl)NC2=O)c1cc(F)cc(C(F)(F)F)c1 (stereo not drawn) [Compound I-932],100 to 500 nM,1000 to 5000 nM
Cc1cc2cnn(C)c2cc1-c1cc(NC(=O)c2cc(F)cc(C(F)(F)F)c2)c2c(c1)C(=O)NC2c1cc(F)ccc1Cl (stereo not drawn) [Compound I-933],100 to 500 nM,5000 to 10000 nM
O=C(Nc1cc(-c2ccnc3ccccc23)cc2c1C(c1cc(F)ccc1Cl)NC2=O)c1cc(F)cc(C(F)(F)F)c1 (stereo not drawn) [Compound I-934],≤ 100 nM,< 1000 nM
O=C(Nc1cc(-c2cnoc2)cc2c1C(c1cc(F)ccc1Cl)NC2=O)c1cc(F)cc(C(F)(F)F)c1 (stereo not drawn) [Compound I-935],≤ 100 nM,< 1000 nM
O=C(Nc1cc(-c2n[nH]c3cccnc23)cc2c1C(c1cc(F)ccc1Cl)NC2=O)c1cc(F)cc(C(F)(F)F)c1 (stereo not drawn) [Compound I-936],≤ 100 nM,< 1000 nM
O=C(Nc1cc(-c2n[nH]c3ccccc23)cc2c1C(c1cc(F)ccc1Cl)NC2=O)c1cc(F)cc(C(F)(F)F)c1 (stereo not drawn) [Compound I-937],100 to 500 nM,1000 to 5000 nM
O=C(Nc1cc(-c2n[nH]c3ncccc23)cc2c1C(c1cc(F)ccc1Cl)NC2=O)c1cc(F)cc(C(F)(F)F)c1 (stereo not drawn) [Compound I-939],≤ 100 nM,< 1000 nM
O=C(Nc1cc(-c2cnc3cnccn23)cc2c1C(c1cc(F)ccc1Cl)NC2=O)c1cc(F)cc(C(F)(F)F)c1 (stereo not drawn) [Compound I-940],≤ 100 nM,< 1000 nM
CC(C)(O)c1ncc(-c2cc(NC(=O)c3cc(F)cc(C(F)(F)F)c3)c3c(c2)C(=O)NC3c2cc(F)ccc2Cl)cn1 (stereo not drawn) [Compound I-941],100 to 500 nM,< 1000 nM
O=C(Nc1cc(-c2cnn(C3CC3)c2)cc2c1C(c1cc(F)ccc1Cl)NC2=O)c1cc(F)cc(C(F)(F)F)c1 (stereo not drawn) [Compound I-942],≤ 100 nM,< 1000 nM
CC(C)(C)OC(=O)N1CC(n2cc(-c3cc(NC(=O)c4cc(F)cc(C(F)(F)F)c4)c4c(c3)C(=O)NC4c3cc(F)ccc3Cl)cn2)C1 (stereo not drawn) [Compound I-944],≤ 100 nM,5000 to 10000 nM
O=C(Nc1cc(-c2cn3ccnc3cn2)cc2c1C(c1cc(F)ccc1Cl)NC2=O)c1cc(F)cc(C(F)(F)F)c1 (stereo not drawn) [Compound I-946],≤ 100 nM,< 1000 nM
Cn1ccc(-c2cc(NC(=O)c3cc(F)cc(C(F)(F)F)c3)c3c(c2)C(=O)NC3c2cc(F)ccc2Cl)n1 (stereo not drawn) [Compound I-947],≤ 100 nM,< 1000 nM
O=C(Nc1cc(-c2cnc3ccccc3n2)cc2c1C(c1cc(F)ccc1Cl)NC2=O)c1cc(F)cc(C(F)(F)F)c1 (stereo not drawn) [Compound I-948],≤ 100 nM,< 1000 nM
O=C(Nc1cc(-c2cc3cnccc3[nH]2)cc2c1C(c1cc(F)ccc1Cl)NC2=O)c1cc(F)cc(C(F)(F)F)c1 (stereo not drawn) [Compound I-949],≤ 100 nM,1000 to 5000 nM
O=C1NC(c2cc(F)ccc2Cl)c2c(Nc3nccc4c(Cl)cc(F)cc34)cc(Br)cc21 (stereo not drawn) [Compound I-959],100 to 500 nM,< 1000 nM
O=C(Nc1cc(-n2cccn2)cc2c1C(c1cc(F)ccc1Cl)NC2=O)c1cc(F)cc(C(F)(F)F)c1 (stereo not drawn) [Compound I-960],≤ 100 nM,< 1000 nM
O=C(Nc1cc(Nc2ncco2)cc2c1C(c1cc(F)ccc1Cl)NC2=O)c1cc(F)cc(C(F)(F)F)c1 (stereo not drawn) [Compound I-961],≤ 100 nM,< 1000 nM
